Test results taken from patent US20240131032A1, “AN ACTIVITY-GUIDED MAP OF ELECTROPHILE-CYSTEINE INTERACTIONS IN PRIMARY HUMAN IMMUNE CELLS” (The Scripps Research Institute, priority 2019, published 2024).

What was measured:
NF-κB = NF-κB activation in stimulated T cells (phosphorylation readout); type: cell-based, human; conditions: 24 h
Method: All treatments were for 24 h.
Freshly isolated T cells (2×10^5 cells/well) were harvested and stimulated as described before in a 96-well plate in the presence of DMSO or compounds of interest. Following the overnight treatment, the cells were pelleted in a U-bottom plate, harvested by centrifugation (600 g, 3 min, 4° C.), washed with PBS, and stained with near-IR LIVE/DEAD dye as described above. After the staining, intracellular phospho-NF-κB p65 (Ser536) levels were measured using PE conjugate of phospho-NF-κB p65 (Ser536) (93H1) rabbit antibody (Cell Signaling Technology) according to manufacturer's instructions. Briefly, the cells were washed with PBS and fixed with 4% PFA in PBS (100 μL, 15 min, rt). The cells were washed with PBS again (2×150 μL), placed on ice and permeabilized with 90% MeOH (100 μL/well, slow addition with gentle mixing by pipetting up and down). Following a 30 min incubation on ice, the plate was sealed and stored at −20° C. overnight. The following day, the cells were thawed on ice, washed with PBS (150 μL×2), and stained with PE conjugate of phospho-NF-κB p65 (Ser536) (93H1) rabbit antibody (50 μL, 1:100 dilution in incubation buffer (1% FBS in PBS)) for 1 h at rt in the dark. The cells were then washed with incubation buffer (150 μL×2) and resuspended in PBS for further flow cytometry analysis.

primary human T cells = assay: Multidimensional screen for inhibition of T cell activation (IL-2, IFN-γ secretion, CD25, CD69 expression); type: cell-based; conditions: electrophilic compounds 10 μM each (DMF 50 μM), 24 h, anti-CD3/anti-CD28 activation
Method: FIG. 4A-4D is an overview of a multidimensional screen to identify elaborated electrophilic compounds that suppress T cell activation. FIG. 4A is a workflow for T-cell activation screen. Primary human T cells were treated with a focused library of elaborated electrophilic compounds (10 μM, structures of compounds in FIG. 12), a positive control immunosuppressive compound (DMF, 50 μM), or DMSO under TCR-stimulating conditions in 96-well plates pre-coated with 5 μg/mL αCD3 and 2 μg/mL αCD28 for 24 h. T cell activation was measured using a combination of markers, including IL2 and IFNγ secretion, as well as surface expression of CD25 and CD69. T cell viability was measured by flow cytometry using a Fixable Near-IR LIVE/DEAD™ Cell Stain. Compounds were considered as active hits if they reduced IL2 cytokine production by >65% with <15% reduction in T cell viability in the cytotoxicity assay compared to DMSO control. […]
The levels of secreted IL2, IFNγ and TNFα after incubating T cells in the presence of DMSO or electrophilic compounds under TCR-stimulating conditions were measured using DuoSet ELISA cytokine kits (R&D Systems) in clear microplates (R&D Systems) according to manufacturer's instructions and read using a CLARIOstar (BMG Labtech) plate reader (450 nm). All cytokine concentrations were calculated according to the standard curve generated for each experiment.

Row | SMILES | reductions in phosphorylation (NF-κB activation) (NF-κB) | suppress T cell activation (primary human T cells) [%]
1 | C=CC(=O)N(Cc1cccc(Cl)c1Cl)c1ccc(Oc2ccccc2)c(C(F)(F)F)c1 [BPK-21] | did not appear to impact | 
2 | COC(=O)/C=C/C(=O)OC [DMF, reference compound] |  | > 65
